BindingDB's records for doi:10.1021/jm9811054 (Merck, 2000)

Molecular target: 5-HT1D receptor (Bos taurus)
Assay: Binding affinity towards 5-hydroxytryptamine 1D receptor in calf striatum using [3H]5-HT as radio-ligand.

Row | SMILES | IC50
1 | COc1ccc(NC(=O)N2CCc3[nH]c4ccc(F)cc4c3C2)cc1N1CCN(C)CC1 [8-Fluoro-1,3,4,5-tetrahydro-pyrido[4,3-b]indole-2-carboxylic acid [4-methoxy-3-(4-methyl-piperazin-1-yl)-phenyl]-amide] | 667 nM
2 | COc1ccc(NC(=O)N2CCC(c3c[nH]c4ccc(C#N)cc34)CC2)cc1N1CCN(C)CC1 [4-(5-Cyano-1H-indol-3-yl)-piperidine-1-carboxylic acid [4-methoxy-3-(4-methyl-piperazin-1-yl)-phenyl]-amide] | 400 nM
3 | COc1ccc(NC(=O)NCCc2c[nH]c3ccc(F)cc23)cc1N1CCN(C)CC1 [1-[2-(5-Fluoro-1H-indol-3-yl)-ethyl]-3-[4-methoxy-3-(4-methyl-piperazin-1-yl)-phenyl]-urea] | 167 nM
4 | COc1ccc(NC(=O)N2CCN(CCCCc3c[nH]c4ccc(F)cc34)CC2)cc1N1CCN(C)CC1 [4-[4-(5-Fluoro-1H-indol-3-yl)-butyl]-piperazine-1-carboxylic acid [4-methoxy-3-(4-methyl-piperazin-1-yl)-phenyl]-amide] | 367 nM

Further compounds by falling IC50, results first:

Row | IC50 | SMILES
5 | 433 nM | COc1ccc(NC(=O)NCCN2CCC(c3c[nH]c4cc(F)ccc34)CC2)cc1OCCN(C)C [1-[3-(2-Dimethylamino-ethoxy)-4-methoxy-phenyl]-3-{2-[4-(6-fluoro-1H-indol-3-yl)-piperidin-1-yl]-ethyl}-urea]
6 | 200 nM | COc1ccc(NC(=O)N2CCC(c3c[nH]c4cc(F)ccc34)CC2)cc1N1CCN(C)CC1 [4-(6-Fluoro-1H-indol-3-yl)-piperidine-1-carboxylic acid [4-methoxy-3-(4-methyl-piperazin-1-yl)-phenyl]-amide]
7 | 100 nM | COc1ccc(NC(=O)N2CCC(c3c[nH]c4ccc(C(N)=O)cc34)CC2)cc1N1CCN(C)CC1 [3-{1-[4-Methoxy-3-(4-methyl-piperazin-1-yl)-phenylcarbamoyl]-piperidin-4-yl}-1H-indole-5-carboxylic acid amide]
